The record followed here is article PMC11931052, “Efficacy of dispirotripiperazine PDSTP in a golden Syrian hamster model of SARS-CoV-2 infection” (Frontiers in Microbiology, 2025).

The nature of data set [1]: Reproductive toxicity: embryotoxicity study. The conditions noted are these: 10% solution, daily topical application, days 6 to 19 of gestation. Type of data set: in vivo, white laboratory rats. The source says:
(§1) PDSTP doses tested: 10% solution
(§2) Test subjects: white laboratory rats of both sexes
Pregnant rats from 6 to 19 days of gestation received daily topical application of PDSTP on 5% of the body surface area (3x5 cm area).

Data set [2] can be described thus: Cytotoxicity (MTT test) in Vero E6 cell line. The class given is cell-based, African Green Monkey (Cercopithecus aethiops). The conditions noted are these: African green monkey, mean ± SD, three independent experiments. On the procedure:
(§3) The microtetrazolium test (MTT test) was used to study the cytotoxicity of the compounds. Vero cells were seeded in 96-well plates at an initial density of 3×10^5 cells/mL, in Gibco Dulbecco’s Modified Eagle Medium supplemented with L-glutamine and 25 mg/L kanamycin, and 10 % fetal bovine serum (FBS) (DMEM, Thermo Fisher Scientific, Waltham, MA USA). Cell cultures were then incubated at 37 °C in a 5 % CO2 atmosphere, in the absence or presence of serial dilutions of test compounds. The test medium used for the cytotoxic assay as well as for the antiviral assay contained 1 % of the appropriate serum. Cell viability was determined after 72 h at 37 °C by the MTT method as previously reported. The cell viability was expressed as a percentage of the control. The 50% cytotoxic concentration (CC50) of each compound was defined as the concentration of the compound that reduced the absorbance (OD570) of the treated cells to 50% when compared with that of untreated cells. CC50 mean values were calculated from at least three independent experiments.
In general terms: Tetrazolium dyes change colour on reduction, which living cells bring about.

Data set [3] deals with SARS-CoV-2 clinical isolate 35245. In words: Plaque reduction assay, SARS-CoV-2 35245. The class given is cell-based. Conditions: Severe acute respiratory syndrome coronavirus 2, read-out: Antiviral activity IC50 against coronaviruses, SARS-CoV-2 clinical isolate 35245, PR. For orientation: Plaque reduction counts the foci of infection that form in a cell layer.
Data set [4] can be described thus: Allergenicity study, guinea pigs. Type of data set: in vivo. The conditions noted are these: intradermal sensitizing dose 40 µg into the ear; epicutaneous and conjunctival testing.
Data set [5] in a line: Acute toxicity, intragastric administration, rats. Conditions: maximum dose 5000 mg/kg. Type of data set: in vivo.
Data set [6] has as its system HCoV-OC43. In words: MTT test, HCoV-OC43 in Vero-76 cells. The class given is cell-based. The conditions noted are these: Betacoronavirus 1, OC43, Vero 76, read-out: IC50 (HCoV-OC43).
In data set [7] the test system is SARS-COV-2 PV10734. In words: Virucidal activity assay. Conditions: 20 µM; 4°C and 37°C for 2 hours. On the procedure: PDSTP (20 µM) was incubated with 3×10^5 PFU/mL of SARS-COV-2 PV10734 at either 4 and 37 °C for 2 hours. The mixture of the viral sample without a test compound was used as an untreated control. At the end of the incubation period, samples were serially diluted in media and titers were determined on Vero-76 cells at high dilutions, at which the compound was not active. Virus titers were determined by plaque assay in Vero-76 cells.

The nature of data set [8]: Chronic toxicity, intranasal administration, rats. Type of data set: in vivo. Conditions: repeated administration for 14 days, 10-200 mg/kg.
For data set [9], the system named is SARS-CoV-2 clinical isolate VR PV10734. Nature of the data set: Plaque reduction assay, SARS-CoV-2 VR PV10734 in Vero E6 cells. Conditions: Severe acute respiratory syndrome coronavirus 2, Vero C1008, mean ± SD, read-out: Antiviral activity IC50 against coronaviruses, SARS-CoV-2 clinical isolate VR PV10734, PR. The class given is cell-based. On the procedure:
Vero E6 cells were incubated in the presence of PDSTP and reference compounds (100.0, 20.0, 4.0, and 0.8 μM concentrations) for 1 h at 37°C in a 5% CO2 and then infected for 1 h with 250 μL of the corresponding virus (SARS-CoV-2 PV10734 or HCoV-229E) dilutions to obtain 50–100 PFU/well. The plates were then incubated for 1 h at 37°C in a 5% CO2 atmosphere. Following the removal of the unabsorbed virus, 400 μL of the medium (D-MEM with L-glutamine, 4,500 mg/L D-glucose, and 1% inactivated FBS) containing 0.75% methyl-cellulose (M0512, viscosity 4,000 cP, Sigma-Aldrich, United States) and the serial dilutions of the compounds were added and incubated for 4 (SARS-CoV-2) or 2 (HCoV-229E) days at 37°C in a 5% CO2 atmosphere. Subsequently, the cells were fixed and stained with a 0.2% crystal violet solution (V5265, Sigma-Aldrich, United States) and then the number of plaques was calculated. The degree of cell growth/viability and viral multiplication at each drug concentration tested was expressed as a percentage of the untreated control. Concentrations resulting in 50% inhibition (CC50 or EC50) were determined using linear regression analysis.

For data set [10], the system named is SARS-CoV-2 clinical isolate 35245. In words: Microtetrazolium (MTT) test, SARS-CoV-2 35245. The class given is cell-based. Conditions: Severe acute respiratory syndrome coronavirus 2, read-out: Antiviral activity IC50 against coronaviruses, SARS-CoV-2 clinical isolate 35245, MTT. On the procedure: The compound’s activity against OC43 and SARS-CoV-235245 was based on the inhibition of virus-induced cytopathogenicity in acutely infected Vero-76 cells (MOI 0.01). Briefly, Vero-76 cells were seeded in 96-well plates at a density of 3 × 10^4 cells/well and incubated in a growth medium in a 5% CO2 at 37°C overnight. Cell monolayers were then infected with 50 μL of the appropriate viral dilution in maintenance medium [D-MEM and MEM-Earl (Gibco, Thermo Fisher Scientific, MA United States) with L-glutamine (Gibco), 1 mM sodium pyruvate (Gibco), and 0.025 g/L kanamycin (Gibco), supplemented with 0.5% inactivated FBS (Harlan Sera-Lab, Loughborough, United Kingdom), respectively] to give an MOI of 0.01, without or with serial dilutions of test samples. After 6 (HCoV-OC43) and 4/5 (SARS-CoV-2) days of incubation at 37°C, the extent of cell viability was quantified using a tetrazolium-based colorimetric method, in which the reduction of 3-(4,5-dimethylthiazol-2-yl)-2,5-diphenyl-tetrazolium bromide (MTT) by mitochondrial dehydrogenases to a soluble colored formazan was measured using a spectrophotometer (Infinity 200, Tecan Austria GmbH, Austria) at 570 nm, as previously reported ([Sanna et al., 2020]).

Data set [11] is described as follows: Reproductive toxicity: generative function of sexually mature animals. Type of data set: in vivo, white laboratory rats. The conditions noted are these: 10% solution topically on 5% of body surface area for 25 days.
Excerpt: as §1, §2
The drug was applied topically on 5% of body surface area (3x5 cm area) for 25 days.

Data set [12] can be described thus: Acute toxicity, intragastric administration, mice. Type of data set: in vivo. Conditions: maximum dose 1000 mg/kg.
Data set [13] in a line: Immunotoxicity study, long-term topical application. Type of data set: in vivo. An excerpt: Conclusion: PDSTP compound has no effect on humoral immunity and functional activity of macrophages when applied topically for 30 days in doses up to 100 TD.
Data set [14] is described as follows: Cytotoxicity (MTT test) in Vero-76 cells. The conditions noted are these: African green monkey. The class given is cell-based, African Green Monkey (Cercopithecus aethiops). On the procedure: as §3

“Also recorded” adds a separate entry of the source.

For orientation: CC50 means the concentration giving 50% cytotoxicity. Broadly, the IC50 is the concentration at which inhibition is half-maximal. As to `Cc1nc(N2CC[N+]3(CC2)CC[N+]2(CCNCC2)CC3)c([N+](=O)[O-])c(N2CC[N+]3(CC2)CC[N+]2(CCNCC2)CC3)n1.Cl.Cl.O.O.O.O.O.O.O.O.O.[Cl-].[Cl-].[Cl-].[Cl-]` [PDSTP, 3,3′-(2-methyl-5-nitropyrimidine-4,6-diyl)bis-3,12-diaza-6,9-diazonia-dispiro[5.2.5.2]hexadecane tetrachloride dihydrochloride nonahydrate], the Embryotoxic effect entry in data set [1] is “no adverse embryotoxic effect”. For the same molecule, the 50% cytotoxic concentration (CC50) at 72 h was 183 ± 40.5 µM in [2] and above 100 µM in data set [14]. The IC50 in data set [3] was 21.4 ± 7.4 µM; in data set [6] it was 0.7 ± 0.4 µM; in [9], 1.8 ± 0.3 µM; in data set [10], 14.5 ± 3.3 µM. Also, the Sensitizing properties result in data set [4] was “no sensitizing properties”. Besides, the Clinical signs entry was “piloerection and diarrhea, deterioration of hair coat, decreased motor activity, and decreased body weight” in data set [5]; “piloerection and diarrhea, deterioration of hair coat, decreased motor activity, and decreased body weight” in data set [12]. Moreover, the Mortality result in [5] and in [12] was “The death of animals was not recorded” throughout. Besides, in [7], the “Virucidal activity (direct impact on viral infectivity)” value is “no direct impact; also recorded: lacks virucidal activity”. In addition, in data set [8], the “Toxic effect on organs and systems” value is “toxic effect on organs and systems was not revealed”. Moreover, the “Effect on generative function of sexually mature animals” value in [11] is “no pathological effect”. In [13] (long-term topical applications, immunosuppression only at maximum dose of 100 TD, reversible 14 days after withdrawal), the “Effect on cellular immunity” value is given as “tends to suppress cellular immunity”. Moreover, the “Effect on humoral immunity and functional activity of macrophages” value in data set [13] (topically for 30 days in doses up to 100 TD) is on record as “no effect”.
